Test results as given in the supplement of paper PMC10307832.

Assays:
Test in all cases: relative viability (nuclei count vs DMSO), 5 days (fraction); higher = more cells survive
ABC-1 = tested on: ABC-1
Procedure, shortened: (§1)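 Relative viability was taken as the ratio of nuclei in treated wells to nuclei in vehicle wells. Lung cancer cell lines in 1536-well plates received compounds by pin tool one day after seeding, either one drug alone or a fixed anchor-drug dose plus five library-drug doses (not always all listed) in √10 steps. Nuclei were counted on 4× images after 5 days of treatment, and values are medians of duplicate plates.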

COR-L23 = tested on: COR-L23
Procedure, shortened: as §1

EPLC-272H = tested on: EPLC-272H
Procedure, shortened: as §1

HARA = tested on: HARA
Procedure, shortened: as §1

HCC-15 = tested on: HCC-15
Procedure, shortened: as §1

HCC-44 = tested on: HCC-44
Procedure, shortened: as §1

HOP-62 = tested on: HOP-62
Procedure, shortened: as §1

LC-2-ad = tested on: LC-2-ad
Procedure, shortened: as §1

LU99A = tested on: LU99A
Procedure, shortened: as §1

NCI-H1355 = tested on: NCI-H1355
Procedure, shortened: as §1

NCI-H1651 = tested on: NCI-H1651
Procedure, shortened: as §1

NCI-H1915 = tested on: NCI-H1915
Procedure, shortened: as §1

NCI-H1993 = tested on: NCI-H1993
Procedure, shortened: as §1

NCI-H2023 = tested on: NCI-H2023
Procedure, shortened: as §1

NCI-H2085 = tested on: NCI-H2085
Procedure, shortened: as §1

NCI-H2126 = tested on: NCI-H2126
Procedure, shortened: as §1

NCI-H2347 = tested on: NCI-H2347
Procedure, shortened: as §1

NCI-H358 = tested on: NCI-H358
Procedure, shortened: as §1

NCI-H650 = tested on: NCI-H650
Procedure, shortened: as §1

NCI-H838 = tested on: NCI-H838
Procedure, shortened: as §1

PC-14 = tested on: PC-14
Procedure, shortened: as §1

SW 1573 = tested on: SW 1573
Procedure, shortened: as §1

UMC-11 = tested on: UMC-11
Procedure, shortened: as §1

CCN(CC)CCCCNc1ncc2cc(-c3cc(OC)cc(OC)c3)c(NC(=O)NC(C)(C)C)nc2n1 + Cc1cc(Nc2cc(N3CCN(C)CC3)nc(Sc3ccc(NC(=O)C4CC4)cc3)n2)n[nH]1 [Tozasertib] (partner 0.1 µM)
relative viability (ABC-1; first compound 0.01 µM): 0.211
relative viability (ABC-1; first compound 0.03162 µM): 0.21
relative viability (ABC-1; first compound 0.1 µM): 0.207
relative viability (ABC-1; first compound 0.3162 µM): 0.148
relative viability (ABC-1; first compound 1 µM): 0.187
relative viability (COR-L23; first compound 0.01 µM): 0.226
relative viability (COR-L23; first compound 0.03162 µM): 0.205
relative viability (COR-L23; first compound 0.1 µM): 0.157
relative viability (COR-L23; first compound 0.3162 µM): 0.206
relative viability (COR-L23; first compound 1 µM): 0.171
relative viability (EPLC-272H; first compound 0.01 µM): 0.282
relative viability (EPLC-272H; first compound 0.03162 µM): 0.314
relative viability (EPLC-272H; first compound 0.1 µM): 0.279
relative viability (EPLC-272H; first compound 0.3162 µM): 0.212
relative viability (EPLC-272H; first compound 1 µM): 0.234
relative viability (HARA; first compound 0.01 µM): 0.104
relative viability (HARA; first compound 0.03162 µM): 0.122
relative viability (HARA; first compound 0.1 µM): 0.0948
relative viability (HARA; first compound 0.3162 µM): 0.0933
relative viability (HARA; first compound 1 µM): 0.0989
relative viability (HCC-15; first compound 0.01 µM): 0.45
relative viability (HCC-15; first compound 0.03162 µM): 0.311
relative viability (HCC-15; first compound 0.1 µM): 0.428
relative viability (HCC-15; first compound 0.3162 µM): 0.342
relative viability (HCC-15; first compound 1 µM): 0.247
relative viability (HCC-44; first compound 0.01 µM): 1.1
relative viability (HCC-44; first compound 0.03162 µM): 1.07
relative viability (HCC-44; first compound 0.1 µM): 0.953
relative viability (HCC-44; first compound 0.3162 µM): 0.899
relative viability (HCC-44; first compound 1 µM): 0.85
relative viability (HOP-62; first compound 0.01 µM): 0.473
relative viability (HOP-62; first compound 0.03162 µM): 0.377
relative viability (HOP-62; first compound 0.1 µM): 0.386
relative viability (HOP-62; first compound 0.3162 µM): 0.408
relative viability (HOP-62; first compound 1 µM): 0.319
relative viability (LC-2-ad; first compound 0.01 µM): 0.416
relative viability (LC-2-ad; first compound 0.03162 µM): 0.467
relative viability (LC-2-ad; first compound 0.1 µM): 0.433
relative viability (LC-2-ad; first compound 0.3162 µM): 0.483
relative viability (LC-2-ad; first compound 1 µM): 0.453
relative viability (LU99A; first compound 0.01 µM): 0.283
relative viability (LU99A; first compound 0.03162 µM): 0.281
relative viability (LU99A; first compound 0.1 µM): 0.324
relative viability (LU99A; first compound 0.3162 µM): 0.269
relative viability (LU99A; first compound 1 µM): 0.265
relative viability (NCI-H1355; first compound 0.01 µM): 0.547
relative viability (NCI-H1355; first compound 0.03162 µM): 0.559
relative viability (NCI-H1355; first compound 0.1 µM): 0.52
relative viability (NCI-H1355; first compound 0.3162 µM): 0.531
relative viability (NCI-H1355; first compound 1 µM): 0.411
relative viability (NCI-H1651; first compound 0.01 µM): 0.747
relative viability (NCI-H1651; first compound 0.03162 µM): 0.716
relative viability (NCI-H1651; first compound 0.1 µM): 0.907
relative viability (NCI-H1651; first compound 0.3162 µM): 0.714
relative viability (NCI-H1651; first compound 1 µM): 0.661
relative viability (NCI-H1915; first compound 0.01 µM): 0.464
relative viability (NCI-H1915; first compound 0.03162 µM): 0.489
relative viability (NCI-H1915; first compound 0.1 µM): 0.48
relative viability (NCI-H1915; first compound 0.3162 µM): 0.461
relative viability (NCI-H1915; first compound 1 µM): 0.348
relative viability (NCI-H1993; first compound 0.01 µM): 0.621
relative viability (NCI-H1993; first compound 0.03162 µM): 0.608
relative viability (NCI-H1993; first compound 0.1 µM): 0.604
relative viability (NCI-H1993; first compound 0.3162 µM): 0.64
relative viability (NCI-H1993; first compound 1 µM): 0.566
relative viability (NCI-H2023; first compound 0.01 µM): 0.323
relative viability (NCI-H2023; first compound 0.03162 µM): 0.428
relative viability (NCI-H2023; first compound 0.1 µM): 0.401
relative viability (NCI-H2023; first compound 0.3162 µM): 0.41
relative viability (NCI-H2023; first compound 1 µM): 0.222
relative viability (NCI-H2085; first compound 0.01 µM): 0.819
relative viability (NCI-H2085; first compound 0.03162 µM): 0.762
relative viability (NCI-H2085; first compound 0.1 µM): 0.823
relative viability (NCI-H2085; first compound 0.3162 µM): 0.729
relative viability (NCI-H2085; first compound 1 µM): 0.639
relative viability (NCI-H2126; first compound 0.01 µM): 0.861
relative viability (NCI-H2126; first compound 0.03162 µM): 0.859
relative viability (NCI-H2126; first compound 0.1 µM): 1.1
relative viability (NCI-H2126; first compound 0.3162 µM): 0.864
relative viability (NCI-H2126; first compound 1 µM): 0.798
relative viability (NCI-H2347; first compound 0.01 µM): 0.509
relative viability (NCI-H2347; first compound 0.03162 µM): 0.508
relative viability (NCI-H2347; first compound 0.1 µM): 0.718
relative viability (NCI-H2347; first compound 0.3162 µM): 0.607
relative viability (NCI-H2347; first compound 1 µM): 0.551
relative viability (NCI-H358; first compound 0.01 µM): 0.108
relative viability (NCI-H358; first compound 0.03162 µM): 0.0902
relative viability (NCI-H358; first compound 0.1 µM): 0.115
relative viability (NCI-H358; first compound 0.3162 µM): 0.104
relative viability (NCI-H358; first compound 1 µM): 0.101
relative viability (NCI-H650; first compound 0.01 µM): 0.714
relative viability (NCI-H650; first compound 0.03162 µM): 0.757
relative viability (NCI-H650; first compound 0.1 µM): 0.765
relative viability (NCI-H650; first compound 0.3162 µM): 0.704
relative viability (NCI-H650; first compound 1 µM): 0.66
relative viability (NCI-H838; first compound 0.01 µM): 0.315
relative viability (NCI-H838; first compound 0.03162 µM): 0.282
relative viability (NCI-H838; first compound 0.1 µM): 0.259
relative viability (NCI-H838; first compound 0.3162 µM): 0.271
relative viability (NCI-H838; first compound 1 µM): 0.205
relative viability (PC-14; first compound 0.01 µM): 0.689
relative viability (PC-14; first compound 0.03162 µM): 0.578
relative viability (PC-14; first compound 0.1 µM): 0.62
relative viability (PC-14; first compound 0.3162 µM): 0.685
relative viability (PC-14; first compound 1 µM): 0.598
relative viability (SW 1573; first compound 0.01 µM): 0.249
relative viability (SW 1573; first compound 0.03162 µM): 0.148
relative viability (SW 1573; first compound 0.1 µM): 0.225
relative viability (SW 1573; first compound 0.3162 µM): 0.193
relative viability (SW 1573; first compound 1 µM): 0.173
relative viability (UMC-11; first compound 0.01 µM): 0.214
relative viability (UMC-11; first compound 0.03162 µM): 0.203
relative viability (UMC-11; first compound 0.1 µM): 0.204
relative viability (UMC-11; first compound 0.3162 µM): 0.195
relative viability (UMC-11; first compound 1 µM): 0.196
